Several values for one entry are separate records, joined by “and”; a condition that tells them apart may be missing. Identical values can stand only once.
Key:
[1] = molecular target: T1, ligand binding domain of the human androgen receptor (AR-LBD) (Homo sapiens, UniProt P10275); test: Competitive binding, AR ligand binding domain
T1 construct: purchased Thermo Fisher Scientific
Protocol: The study aimed to characterize the competitive binding profile of EC313 to relevant human nuclear receptors. For the assays, commercially available ‘ligand binding domain’ proteins were purchased (Thermo Fisher Scientific). In addition, the full-length receptor proteins were expressed in transfected HI insect cells using the `Bac-to-bac Baculovirus expression system´ (Thermo Fisher Scientific). Cellular lysates served as receptor preparation. Receptor protein preparations were incubated with tritiated reference ligands and EC313 or reference steroids at concentrations between 0.1 and 1000 nM for 2h at 4°C to reach equilibrium. Subsequently, unbound steroids were adsorbed to dextran-coated charcoal (Sigma Aldrich), separated by filtration, and the remaining radioactivity was quantified in a ß-counter (Perkin Elmer). Displacement curves were fitted using the GraphPad Prism 7 free version to obtain EC50 values. Relative binding affinity (RBA [%], (C50ref/C50test)*100) and the competition coefficient (C50test/C50ref) were used to describe the relative binding potency of EC313 compared to the reference ligands.

[2] = molecular target: T2, human mineralocorticoid receptor (hMR) (Homo sapiens, UniProt P08235); test: MR transactivation (U2OS, MMTV-LUC); assay type: cell-based
T2 construct: host or cells: U2OS, transient co-transfection
T2 sequence (P08235 1-984): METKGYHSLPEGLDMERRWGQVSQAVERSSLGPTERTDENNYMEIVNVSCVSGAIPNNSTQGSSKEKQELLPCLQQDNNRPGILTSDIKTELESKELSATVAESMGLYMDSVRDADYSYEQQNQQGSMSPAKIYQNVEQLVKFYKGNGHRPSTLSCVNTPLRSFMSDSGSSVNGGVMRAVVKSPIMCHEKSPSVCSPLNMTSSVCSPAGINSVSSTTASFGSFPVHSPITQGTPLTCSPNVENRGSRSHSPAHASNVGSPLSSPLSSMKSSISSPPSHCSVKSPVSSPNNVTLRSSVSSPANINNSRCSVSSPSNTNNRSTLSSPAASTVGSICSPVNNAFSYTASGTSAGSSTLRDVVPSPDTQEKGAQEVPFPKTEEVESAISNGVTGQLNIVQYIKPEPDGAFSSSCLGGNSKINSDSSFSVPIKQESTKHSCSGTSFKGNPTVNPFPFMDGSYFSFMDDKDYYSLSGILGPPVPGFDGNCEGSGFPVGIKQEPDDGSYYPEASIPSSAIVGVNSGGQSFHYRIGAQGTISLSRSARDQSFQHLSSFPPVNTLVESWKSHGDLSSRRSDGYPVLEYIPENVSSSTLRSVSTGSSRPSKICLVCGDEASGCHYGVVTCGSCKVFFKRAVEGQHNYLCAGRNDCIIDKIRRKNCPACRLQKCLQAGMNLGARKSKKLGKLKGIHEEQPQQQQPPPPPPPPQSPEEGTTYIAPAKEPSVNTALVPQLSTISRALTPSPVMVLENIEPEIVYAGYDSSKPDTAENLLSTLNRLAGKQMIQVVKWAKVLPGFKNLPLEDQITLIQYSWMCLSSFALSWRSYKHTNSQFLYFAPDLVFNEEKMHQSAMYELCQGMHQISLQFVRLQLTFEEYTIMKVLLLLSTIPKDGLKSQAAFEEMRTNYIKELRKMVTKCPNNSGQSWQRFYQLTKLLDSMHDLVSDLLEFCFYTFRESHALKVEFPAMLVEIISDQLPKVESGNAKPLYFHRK
From the text: The U2OS cell line which expresses the mineralocorticoid receptor was used to study the gene expression on the transcriptional level under the influence of EC313 and the reference compound. The cells were transfected with a vector encoding a human full-length mineralocorticoid receptor (hMR) linked to the reporter vector MMTV/LUC. Cells were transiently and stably transfected in order to reach high protein expression. Next, co-transfected U2OS cells carrying mineralocorticoid receptors and reporter vector MMTV/LUC were stimulated by the tested compounds (Aldosterone or EC313) or the mixture: aldosterone and an appropriate range of concentrations of EC313. The agonist and antagonist properties of EC313 toward tested receptor MR were analyzed using luminescence detection.
In order to develop the transfection assay, plasmid-included vectors coding sequences for the receptor as well as the reporter gene were generated and isolated, respectively. Vector pcDNA3.1 coding sequence for full length of human MR (MR cDNA ORF clone in pcDNA3.1+/C-(K)-DYK) was used as an expression vector for MR and was linked to the reporter system (pGL4.36-MMTV/LUC) building with vector pGL4.36 coding the mineralocorticoid responsive element (MMTV) and firefly luciferase [luc2P/Hygro].
Transfection was performed on a 96-well plate (15.5x10^3 cells per well) in culture medium (RPMI phenol red, 10% FBS, L-Glu) w/o antibiotics according to the manufacturer’s specification. Prior to transfection, plated cells were approximately 70%–80% confluent. 24h later, cells were treated with test compounds overnight.
The properties of EC313 to induce/inhibit tested receptor was studied in agonistic and antagonistic approaches. Co-transfected U2OS cells were stimulated with either aldosterone (0.009 nM - 1200 nM) or EC313 (0.009 nM - 1200 nM) in order to determine and compare the agonist potential of test compounds. The antagonistic activity was checked in competitive interaction between EC313 (0.009 nM - 1200 nM) and 0.4 nM of Aldosterone.

T47D cells = test: Proliferation / arrest in Go/G1 in T47D cells; assay type: cell-based, human; set-up: key to Arrest in Go/G1: ↓/↑ - decreased/increased action of tested compounds.; ↓/↑ - decreased/increased action of tested compounds
[3] = test system: adrenalectomized male Wistar rats; test: Thymus-Involution-Test in adrenalectomized rats; assay type: in vivo, rat; details: doses up to 100 mg/animal/day s.c., 4 days
Protocol: The standard Thymus-Involution-Test in rats was used. […] On day 5 the animals were sacrificed, and the thymus and spleen weights were determined. Reduced weight of the thymus indicated glucocorticoid activity. Stopping the dexamethasone-induced thymus reduction by the test compound indicated anti-glucocorticoid activity.

[4] = test system: human endometriotic tissue grafts; test: Human endometriotic xenografts in immunodeficient mice; assay type: in vivo; details: s.c. once daily 14 days; EC313 0,01, 0.1, 1 mg/animal/day; Ulipristal acetate 1 mg/animal/day; vs vehicle control
From the text: Endometriosis is one of the expected clinical target indications for the development of EC313. But, there are no reliable pre-clinical models known at present. From all experimental approaches, the transplantation of human endometriotic tissue into immunodeficient mice resembles the clinical situation to some extent closely. Treatment of EC313 was compared with UPA as a reference compound. Two to four small pieces of human endometriotic tissue were placed into a s.c. pouch in the pelvic area of each of the ovariectomized mice. At the same time, an E2-releasing pellet (0.36 mg/pellet/60 days) was implanted s.c. in the neck of the mice. Furthermore, 2 weeks after implantation, the mice were treated with once-daily s.c. injections of vehicle, EC313 (0,01, 0.1, and 1 mg/animal/day), or Ulipristal acetate (1 mg/animal/day) for 14 days. The mice were sacrificed 24 hours after the last injection and all identified endometriotic grafts were resected, weighed, and subjected to visual examination.

T1 sequence (P10275 669-900 limits assumed): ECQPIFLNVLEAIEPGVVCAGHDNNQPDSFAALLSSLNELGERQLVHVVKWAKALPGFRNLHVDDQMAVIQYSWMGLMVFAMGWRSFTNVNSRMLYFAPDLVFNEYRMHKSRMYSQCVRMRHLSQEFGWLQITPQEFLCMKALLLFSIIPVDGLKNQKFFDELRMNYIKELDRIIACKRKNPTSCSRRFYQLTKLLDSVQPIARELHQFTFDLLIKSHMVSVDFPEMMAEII

## C[C@]12C[C@H](c3ccc(-c4ccoc4)cc3)C3=C4CCC(=O)C=C4CC[C@H]3[C@@H]1CC[C@]21OCCC1=C(F)F [EC313]
[1]; AR-LBD
  IC50: 1060 nM
[1]; EC313 relative to Metribolone
  AR-LBD Comp. Coefficient: 17
[2]
  transactivation of hMR (agonism): does not transactivate hMR
[2]; MR antagonism
  fold lower potency than Spironolactone: approximately 80 fold
[2]; MR, 0.4 nM Aldosterone, read-out: IC50, antagonism of Aldosterone-induced transactivation
  IC50: 2000 nM and ~2000 nM
T47D cells
  estradiol-induced proliferation of T47D: counteracts the estradiol-induced proliferation of T47D
T47D cells; Proliferation, T47D cells, statistical significance not always reached
  Arrest in Go/G1: ↑
[3]
  glucocorticoid / anti-glucocorticoid activity (thymus weight): neither glucocorticoid nor anti-glucocorticoid activities
[4]
  weights of human endometriotic tissue grafts: significantly lower weights of the grafts

— PMC10520499, “Next step in the development of mesoprogestins: the preclinical profile of EC313” (Frontiers in Endocrinology, 2023)
